Like-named read-outs stand apart in the source and are kept apart here.
Key:
[1] = tested on: dogs undergoing orthopaedic surgery; experiment: Non-inferiority field study of postoperative pain and inflammation after orthopaedic surgery, meloxicam-controlled (SFGCMPS, VAS); assay type: in vivo
Description: The study was a non-inferiority, multicentre, prospective, parallel-controlled, randomized and blinded field study.
Thirty-two dogs of different breed, age and weight presenting at the veterinary practice for orthopaedic surgery were included.
Agents with analgesic effect were permitted as premedication. However, intraoperative or postoperative analgesia were not permitted.
For each dog the study lasted twelve days. Two days before surgery, all animals were weighed and underwent a thorough physical examination with clinical pathology to confirm the good health status of the animals before inclusion. Day 0 (D0) was the day dogs underwent surgery and t0h corresponded to the end of surgery (extubation). The physical examination was repeated on D0, before surgery (t-2h) and before dispatch (t8h) and again at t24h (D1) and t168 (D7) post-surgery. Clinical assessments of pain and inflammation were blindly performed on D0, before surgery (t-2h) and again at t1.5h, t3h, t5h, t8h, t24h (D1) and t168h (D7) post-surgery. The global efficacy of treatments was assessed on D7. From day D1 to day D7 post-surgery, the owners assessed the dog's wellbeing.
The primary endpoint for efficacy comprises the sum of scores for the SFGCMPS scale, which was assessed at different time points by the Investigator.
From day D1 to D7, owners daily assessed the dogs' wellbeing using scales for: • Demeanour (0=normal; 1=slightly modified; 2=moderately modified; 3=markedly modified and 4=severely modified). • Mobility (0=normal; 1=slightly impaired; 2=moderately impaired; 3=markedly impaired and 4=severely impaired). • Quality of analgesia as very satisfactory (=1); satisfactory (=2); not very satisfactory (=3); not at all satisfactory (=4).
Blood samples were collected from all animals before inclusion (≤ D-2), for routine pre-surgery blood profile. Potential adverse effects related to the products were also recorded.
Statistical Analysis was performed by use of commercially available software. All analyses used a two-sided significance level α = 0.05. […]

[2] = tested on: dogs undergoing soft tissue surgery; assay type: in vivo; set-up: Vocalization (SFGCMPS average value) / Attention to wound (SFGCMPS average value) / Mobility (SFGCMPS average value) / Demeanour (SFGCMPS average value) / Posture/Activity (SFGCMPS average value) / Total SFGCMPS (average value): scale not given here
Description: The study was a single centre, prospective, parallel-controlled, randomized and blinded pilot field trial with a negative (Placebo) control to evaluate the efficacy of E-6087 in dogs undergoing elective soft tissue surgery.
Twenty dogs (17 females and 3 males) were included in the study. Dogs were of different breeds or crossbreed, ages from 3 months to 7 years and weights from 4 to 34 kg. All dogs were clinically healthy other than the condition causing the animal to go under surgery.
Two days before surgery animals were weighed, a detailed physical examination was performed, and blood samples were collected for routine haematology and biochemistry to confirm the good health status of the animals before inclusion.
Dogs were randomly allocated to receive either E-6087 or Placebo as oral tablets. E-6087 and Placebo tablets were similar (same appearance and packaging), therefore treatment administration, clinical examinations and blood sample analysis was always blind.
E-6087 was administered at the dose of 8 mg/kg on day D-1, approximately 24h before surgery scheduled time, before the first meal of the day. Placebo tablets were administered following the same posology.
Surgeries were performed in the morning, on day D0 by the Investigator (Surgeon). All surgeries were performed under the same anaesthesia protocol. Premedication was performed with medetomidine and morphine both at 0.1 ml/10 kg followed by anaesthesia maintained with Tiletamine/Zolazepam (Zoletil®). Local anaesthesia was not permitted. At the end of surgery, antibiotic therapy was administered to all dogs following the post-operative protocol stablished: amoxicillin (trihydrate) at 15 mg of amoxicillin/kg bw in a single dose.
Clinical assessments of postoperative pain and inflammation were done by the Investigator (Examining Veterinarian) using the SFGCMPS (13). Visual Analog Scales (VAS) were also used to assess pain at rest and under palpation as well as the level of inflammation.
On D0 at approximately 2 hours before surgery the Examining Veterinarian performed a physical examination and the clinical assessment of pain and inflammation to determine the basal scores. After surgery pain and inflammation were assessed at six examination time points: t1.5h, t3h, t5h (±30 minutes), t8h (±1hour), t24h and t168 (D7), when t0h corresponded to the end of surgery (extubation).
Clinical assessment of pain and inflammation included assessments of vocalization, attention to wound area, mobility, reaction to pressure at the wound area, general behaviour as well as activity and posture as per SFGCMPS. In addition, pain at rest and after palpation as well as the level of inflammation were assessed at the same time points by VAS ranging from 0 (no pain) to 100 (severe pain manifested by vocalization, aggression, and refusal to allow examination) and from 0 (no inflammation) to 100 (major inflammation as local heat, redness or paresis of the affected area).
Statistical Analysis was performed by use of commercially available software (SigmaPlot for Windows version 13.0). The area under the curve (AUC) was calculated for observable pain during the initial 8 and 24 hours, and it was considered as the primary efficacy variable. All analyses applied a two-sided significance level α = 0.05 and a power β = 80%. Demographic and baseline data were compared using the Mann-Whitney U test. Gender was compared with the Fisher exact probability test in contingency tables. Efficacy variables were analysed by repeated measures ANOVA.

[3] = tested on: dogs undergoing experimental orthopaedic surgery; experiment: Control of postoperative pain and inflammation after experimental orthopaedic (knee) surgery, Maquet Modified Procedure; assay type: in vivo, Beagle dogs
Protocol: The study was performed with 6 clinically healthy Beagle dogs with similar age and weight that were experimentally subjected to knee surgery (repair of cranial cruciate ligament rupture). […] All surgeries were conducted under the same preoperative, intraoperative and postoperative protocols and performed by the same surgeon. A highly standardized surgical technique, Maquet Modified Procedure (MMP) (12) was implemented.
For each dog the study lasted 17 days, including a 7-day acclimatization period. On day D-1 (approximately 24h before the intervention) the five dogs in the TG received a single oral dose (8 mg/kg) of the TP, the one dog in the CG received a single subcutaneous dose (0.1 mg/kg) of the RP. […] On day D0 all dogs underwent knee surgery in the right knee. From day D1 up to day D10 dogs were closely examined and signs of pain and discomfort were blindly evaluated and rated using the Short Form of the Glasgow Composite Pain Scale (SFGCPS) ranging from 0 to 24 (13 and http://www.newmetrica.com/cmps/). On day D-1 dogs were also examined to rule out signs of pain or discomfort.

[4] = 1.5h after surgery, 8 mg/kg oral on D-1
[5] = 3h after surgery, 8 mg/kg oral on D-1
[6] = 5h after surgery, 8 mg/kg oral on D-1
[7] = 8h after surgery, 8 mg/kg oral on D-1
[8] = 24h after surgery, 8 mg/kg oral on D-1

NS(=O)(=O)c1ccc(N2N=C(C(F)(F)F)CC2c2ccc(F)cc2F)cc1 (centres unmarked) [E-6087, enflicoxib]
level of inflammation (VAS 0-100) compared with meloxicam ([1]; at 3h, p= 0.025): lower values
SFGCMPS (AUC), average value ([1]; initial 24 hours, TG: E-6087 8 mg/kg oral on D-1, CG: meloxicam 0.2 mg/kg s.c. or i.v. on D0, then 0.1 mg/kg oral daily D1 to D7, p=0.7962): 95.50±57.70
SFGCMPS at each time point compared with CG ([1]; no statistically significant differences at any time point): most values were lower
values of AUC for the first 24 hours after surgery compared with Placebo ([2]; 8 mg/kg oral on D-1, not statistically significant (p=0.266)): almost half
AUC for the first 8 hours compared with Placebo ([2]; 8 mg/kg oral on D-1, p=0,033): statistically significant lower values
Attention to wound (SFGCMPS average value) [2, 4]: 0
Demeanour (SFGCMPS average value) [2, 4]: 0.83
Mobility (SFGCMPS average value) [2, 4]: 0.33
Posture/Activity (SFGCMPS average value) [2, 4]: 0.17
Pressure on wound (SFGCMPS average value) [2, 4]: 0.33
Total SFGCMPS (average value) [2, 4]: 1.92
Vocalization (SFGCMPS average value) [2, 4]: 0.25
Attention to wound (SFGCMPS average value) [2, 5]: 0.08
Demeanour (SFGCMPS average value) [2, 5]: 0.50
Mobility (SFGCMPS average value) [2, 5]: 0
Posture/Activity (SFGCMPS average value) [2, 5]: 0.08
Pressure on wound (SFGCMPS average value) [2, 5]: 0.42
Total SFGCMPS (average value) [2, 5]: 1.33
Vocalization (SFGCMPS average value) [2, 5]: 0.25
level of inflammation (VAS 0-100) compared with Placebo ([2]; 3 hours after surgery, p=0.021): Placebo was greater than for the group treated with E-6087
Attention to wound (SFGCMPS average value) [2, 6]: 0.08
Demeanour (SFGCMPS average value) [2, 6]: 0.17
Mobility (SFGCMPS average value) [2, 6]: 0
Posture/Activity (SFGCMPS average value) [2, 6]: 0
Pressure on wound (SFGCMPS average value) [2, 6]: 0.50
Total SFGCMPS (average value) [2, 6]: 0.75
Vocalization (SFGCMPS average value) [2, 6]: 0
Attention to wound (SFGCMPS average value) [2, 7]: 0
Demeanour (SFGCMPS average value) [2, 7]: 0
Mobility (SFGCMPS average value) [2, 7]: 0
Posture/Activity (SFGCMPS average value) [2, 7]: 0
Pressure on wound (SFGCMPS average value) [2, 7]: 0.67
Total SFGCMPS (average value) [2, 7]: 0.50
Vocalization (SFGCMPS average value) [2, 7]: 0
Attention to wound (SFGCMPS average value) [2, 8]: 0
Demeanour (SFGCMPS average value) [2, 8]: 0
Mobility (SFGCMPS average value) [2, 8]: 0
Posture/Activity (SFGCMPS average value) [2, 8]: 0
Pressure on wound (SFGCMPS average value) [2, 8]: 0.50
Total SFGCMPS (average value) [2, 8]: 0.50
Vocalization (SFGCMPS average value) [2, 8]: 0
AUC0→24h (SFGCMPS, observable pain) ([2]; first 24 hours after surgery, 8 mg/kg oral on D-1, primary efficacy variable): 16,0±15
Total scores for SFGCMPS at each time point compared with Placebo ([2]; significant only at 1.5, 3 and 5 hours (p <0,001, 0.007 and 0.042)): always lower
alleviating pain and inflammation after soft tissue surgery ([2]; single dose of 8 mg/kg): effective
need of rescue analgesia ([3]; 10 days follow up period): None of the animals needed rescue analgesia
potential adverse effects related to product administration ([3]; single oral dose 8 mg/kg on D-1): No potential adverse effects related to product administration were recorded
analgesic agent in the postoperative period after orthopaedic surgery ([3]; single oral dose 8 mg/kg on D-1, SFGCPS 0-24, D1 to D10): effective

Reference: patent EP4029502A1, “PYRAZOLINE-DERIVED COMPOUND (ENFLICOXIB) FOR USE IN THE PREVENTION AND/OR TREATMENT OF PAIN AND INFLAMMATION ASSOCIATED TO SURGERY IN MAMMALS” (Ecuphar N.V., priority 2021, dated 2022)
